pIC50: −log10 of the molar value. Where two headings read alike, the source gives them in different places.
How the values were obtained:
[1] = test system: Raw 264.7 Macrophages
[2] = test system: T. cruzi trypomastigotes; experiment: Proliferation assay of T. cruzi trypomastigotes inside Human Osteoblasts; format: cell-based, Trypanosoma cruzi; settings: 48 H treatment
Experimental: IC50 is median inhibitory concentration. TI is therapeutic index. […] This example further illustrates positives effects of treatment with the present compounds. […] The negative control was treated with 1% DMSO. The positive control was treated with Amp B at […].

[3] = test system: T. cruzi Epimastigotes; experiment: Activity against T. cruzi epimastigotes; format: cell-based, Trypanosoma cruzi
[4] = test system: L. major Luciferase promastigotes; experiment: Antiparasitic activity in L. major Luciferase promastigotes; format: cell-based, Leishmania major; settings: 72 hr
Description: IC50 is median inhibitory concentration. TI is therapeutic index.

Row | SMILES | Mammalian cells LD50 (μM) Raw 264.7 Macrophages ([1]; mouse, 48 h) [µM] | pIC50 ([2]; Trypanosoma cruzi, Osteoblast) | further results
1 | CCOC(=O)c1c(NC(=O)c2cccc(C(F)(F)F)c2F)sc2c1CC(C)(C)NC2(C)C [GP1-04, Ethyl 2-(2-fluoro-3-(trifluoromethyl)benzamido)-5,5,7,7-tetramethyl-4,5,6,7-tetrahydrothieno[2,3-c]pyridine-3-carboxylate] | 17 |  | 
2 | CCOC(=O)c1c(NC(=O)c2ccc(F)c(C(F)(F)F)c2)sc2c1CC(C)(C)NC2(C)C [GP1-05, Ethyl 2-(4-fluoro-3-(trifluoromethyl)benzamido)-5,5,7,7-tetramethyl-4,5,6,7-tetrahydrothieno[2,3-c]pyridine-3-carboxylate] | 22 |  | 
3 | CCOC(=O)c1c(N)sc2c1CC(C)(C)NC2(C)C [RS1, Ethyl 2-amino-5,5,7,7-tetramethyl-4,5,6,7-tetrahydrothieno[2,3-C]pyridine-3-carboxylate] |  | > 5.00 | 
4 | CCOC(=O)c1c(NC(=O)c2ccc([N+](=O)[O-])s2)sc2c1CC(C)(C)NC2(C)C [RS2, ethyl 5,5,7,7-tetramethyl-2-(5-nitrothiophene-2-carboxamido)-4,5,6,7-tetrahydrothieno[2,3-c]pyridine-3-carboxylate] | ~32 | > 5.90 | T. cruzi LD50 (μM) Epimastigotes [3]: ~7.5 µM
5 | CCOC(=O)c1c(NC(=O)c2cccc(C(F)(F)F)c2)sc2c1CC(C)(C)NC2(C)C [RS3, Ethyl 5,5,7,7-tetramethyl-2-(3-(trifluoromethyl)benzamido)-4,5,6,7-tetrahydro-thieno[2,3-c]pyridine-3-carboxylate] | >40 | > 5.90 | 
6 | CCOC(=O)c1c(NC(=O)c2c(F)c(F)c(F)c(F)c2F)sc2c1CC(C)(C)NC2(C)C [RS4, Ethyl 5,5,7,7-tetramethyl-2-(perfluorobenzamido)-4,5,6,7-tetrahydrothieno[2,3c]pyridine-3-carboxylate] |  |  | Mammalian cells LD50 (μM) Raw 264.7 Macrophages ([1]; macrophage cytotoxicity, text: intraperitoneal macrophages (IPΦ) treated for 48 hrs): ~15 µM; pIC50 [2]: > 6.81; L. major LD50 (μM) Promastigotes [4]: 0.671 µM
7 | CCOC(=O)c1c(NC(=O)c2ccc(C(F)(F)F)cc2)sc2c1CC(C)(C)NC2(C)C [RS5, Ethyl 5,5,7,7-tetramethyl-2-(4-(trifluoromethyl)benzamido)-4,5,6,7-tetrahydrothieno[2,3-c]pyridine-3-carboxylate] |  | 5.12 | 

— US9988395B2, “Antiparasitic compositions and methods utilizing substituted 5,5,7,7-tetramethyl-4,5,6,7-tetrahydrothieno[2,3-C]pyridine derivatives” (THE BOARD OF REGENTS OF THE UNIVERSITY OF TEXAS SYSTEM, priority 2015, dated 2018)
